Laboratory results: the SangsterLogP compilation

Assay: method code SF-HPLC, from DOI: 10.1248/cpb.46.274

SMILES | logP
CC(=O)/C=C/c1ccc(N(C)C)cc1 | 2.66
CC(=O)C=Cc1ccc(OC(C)=O)cc1 | 1.63
COc1ccc(/C=C/C(C)=O)cc1 | 2.25
CCc1ccc(/C=C/C(C)=O)cc1 | 3.26
COc1cccc(/C=C/C(C)=O)c1 | 2.27
CC(=O)/C=C/c1ccc(Cl)cc1 | 2.8
CC(=O)C=Cc1ccc(F)cc1 | 2.22
CC(=O)/C=C/c1cccc([N+](=O)[O-])c1 | 1.88
CC(=O)C=Cc1cccc(C#N)c1 | 1.59
CCOc1ccc(C=CC(C)=O)cc1 | 2.73
CC(=O)/C=C/c1cccc(C)c1 | 2.68
CC(=O)C=Cc1ccc(C#N)cc1 | 1.64
CC(=O)C=Cc1ccc(C)cc1 | 2.65
CC(=O)C=Cc1ccc(Br)cc1 | 3.03
CC(=O)/C=C/c1ccc(O)cc1 | 1.86

Continued, values first:

logP | SMILES
2.25 | CC(=O)C=Cc1cccc(F)c1
3.13 | CC(=O)/C=C/c1ccc(C(F)(F)F)cc1
2.42 | N#Cc1ccc(C=CC(=O)C(F)(F)F)cc1
3.05 | COc1cccc(C=CC(=O)C(F)(F)F)c1
2.19 | CC(=O)/C=C/c1ccccc1O
3.01 | O=C(C=Cc1ccccc1)C(F)(F)F
2.6 | CC(=O)/C=C/c1ccccc1C
2.85 | CC(=O)/C=C/c1ccccc1Cl
2.81 | CC(=O)/C=C/c1cccc(Cl)c1
3.14 | CC(=O)/C=C/c1ccccc1C(F)(F)F
3.5 | O=C(C=Cc1ccccc1Cl)C(F)(F)F
2.42 | COc1ccccc1/C=C/C(C)=O
3.39 | COc1ccccc1C=CC(=O)C(F)(F)F
3.02 | CC(=O)/C=C/c1cccc(Br)c1
3.33 | COc1ccc(C=CC(=O)C(F)(F)F)cc1
2.66 | O=C(C=Cc1cccc([N+](=O)[O-])c1)C(F)(F)F
3.58 | O=C(C=Cc1cccc(Cl)c1)C(F)(F)F
2.45 | N#Cc1cccc(/C=C/C(=O)C(F)(F)F)c1
3.63 | O=C(C=Cc1ccc(Cl)cc1)C(F)(F)F
3.03 | CC(=O)/C=C/c1cccc(C(F)(F)F)c1
2.34 | CC(=O)/C=C/c1ccccc1F
